Assay results published in patent US20210393664A1, “THERAPEUTIC METHODS AND COMPOSITIONS FOR TREATING ACUTE MYELOID LEUKEMIA USING DEVIMISTAT” (Rafael Pharmaceuticals, Inc., priority 2018, published 2021).

What was measured:
[1] = Leaching of DEHP from IV infusion sets and IV bags; assay type: physicochemical; conditions: DEHP-containing IV infusion sets and IV bags
[2] = Animal study NCL-049: extra air in the dead space of IV catheters during administration; assay type: in vivo; conditions: accidental co-administration of extra air in the dead space of IV catheters; animal studies (Study NCL-049)
Method: (§1) Diluted CPI-613® (devimistat) drug product must be administered over 2 hours, concurrently with D5W at the rate of 125 mL/hour, by IV infusion via a central line catheter, using an infusion pump, that is free flowing and free of air in the dead space of the IV catheter. This is done to minimize vascular irritation, inflammation and acute toxicity of CPI-613® (devimistat) (Study NCL-049). […] To avoid local reactions at and around the site of administration, CPI-613® (devimistat) must be administered via a central IV catheter.

[3] = design: species or system animal; conditions: in vivo, iv
Method: as §1

[4] = Adverse events by relatedness to devimistat; assay type: in vivo, human; conditions: patients
Excerpt: An AE can therefore be any unfavorable sign (including an abnormal laboratory finding), symptom, or disease temporarily associated with the study treatment, whether or not related to the investigational product.
Probably Related—A clinical event follows a reasonable temporal sequence from the time of Investigational Product (CPI-613®) administration. The toxicity cannot be reasonably explained by other factors such as the subjects clinical state or concurrent medical condition, or concurrent medication(s).
Possibly Related—A clinical event follows a reasonable temporal sequence from the time of active Investigational Product (CPI-613®) administration, but could also have been produced by other factors such as the subjects clinical state, or concurrent medical condition, or concurrent medication(s).

With `O=C(O)CCCCC(CCSCc1ccccc1)SCc1ccccc1` (stereo not shown) [devimistat, 6,8-bis-benzylthio-octanoic acid] the “leaching of DEHP” value [1] was “can cause leaching of DEHP from IV infusion sets and IV bags”, the acute toxicity [2] was “potential to induce acute toxicity” and the local inflammation [3] was “significant local inflammation”. For the same compound, the “adverse events probably related” value [4] was “Nausea, Vomiting, Diarrhea, Increased creatinine, Neutropenia, Hyperkalemia, Hypoalbuminemia, Hypophosphatemia, Hyponatremia, Fatigue, Platelet count decreased, Renal failure (reversible), Glomerular filtration rate (decreased), Hemoglobin (anemia)”.
